Reference: ChEMBL document CHEMBL1201862, “PubChem BioAssay data set” (2004)
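Assay format: 96-well plates, 48-hour exposure. Here, GI50 denotes the concentration required for 50% inhibition of growth.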 Activity calls are given as the source filed them. Rule as the data show it: active = GI50 up to about 1.1 µM and inactive = higher.

How the values were obtained:
Experiment in all cases: DTP human tumour cell line panel, 48 h
HOP-18 = tested on: HOP-18
HOP-92 = tested on: HOP-92
IGROV-1 = tested on: IGROV-1
UO-31 = tested on: UO-31
SNB-19 = tested on: SNB-19
DMS-114 = tested on: DMS-114
SF-295 = tested on: SF-295
NCI-H23 = tested on: NCI-H23
TK-10 = tested on: TK-10
KM-20L2 = tested on: KM-20L2
RXF 393 = tested on: RXF 393
SK-MEL-28 = tested on: SK-MEL-28
OVCAR-3 = tested on: OVCAR-3
DMS-273 = tested on: DMS-273
UACC-62 = tested on: UACC-62
K562 = tested on: K562
CCRF-CEM = tested on: CCRF-CEM
SN12C = tested on: SN12C
HCT-15 = tested on: HCT-15
SNB-75 = tested on: SNB-75
HOP-62 = tested on: HOP-62
A498 = tested on: A498
NCI-H226 = tested on: NCI-H226
NCI-H522 = tested on: NCI-H522
LXFL 529 = tested on: LXFL 529
SF-268 = tested on: SF-268
OVCAR-4 = tested on: OVCAR-4
A549 = tested on: A549
MOLT-4 = tested on: MOLT-4
SF-539 = tested on: SF-539
U-251 = tested on: U-251
SK-MEL-5 = tested on: SK-MEL-5
M19-MEL = tested on: M19-MEL
COLO 205 = tested on: COLO 205
KM12 = tested on: KM12
OVCAR-8 = tested on: OVCAR-8
SW-620 = tested on: SW-620
EKVX = tested on: EKVX
ACHN = tested on: ACHN
HCT-116 = tested on: HCT-116
HL-60 = tested on: HL-60
CAKI-1 = tested on: CAKI-1
SR = tested on: SR
786-0 = tested on: 786-0
SK-OV-3 = tested on: SK-OV-3
SK-MEL-2 = tested on: SK-MEL-2
SNB-78 = tested on: SNB-78
HCC 2998 = tested on: HCC 2998
RXF 631 = tested on: RXF 631
UACC-257 = tested on: UACC-257
NCI-H460 = tested on: NCI-H460
XF498 = tested on: XF498
Malme-3M = tested on: Malme-3M
DLD-1 = tested on: DLD-1
HT-29 = tested on: HT-29
LOX IMVI = tested on: LOX IMVI
OVCAR-5 = tested on: OVCAR-5
RPMI-8226 = tested on: RPMI-8226
M14 = tested on: M14

In the case of `O=C(NCCCCCCCCCCCCNC(=O)c1cccc2ccccc12)c1cccc2ccccc12`, the GI50 (HOP-18) is reported as > 61.1 µM (inactive), the GI50 (HOP-92) is reported as > 52.2 µM (inactive) and the GI50 (IGROV-1) is reported as > 55.3 µM (inactive). The GI50 (UO-31) was > 42.7 µM (inactive), the GI50 (SNB-19) was 45.6 µM (inactive) and the GI50 (DMS-114) was > 100 µM (inactive). For the same molecule, the GI50 (SF-295) was > 50.4 µM (inactive), the GI50 (NCI-H23) was > 64.1 µM (inactive) and the GI50 (TK-10) was > 52.7 µM (inactive). For the same molecule, the GI50 (KM-20L2) was > 100 µM (inactive), the GI50 (RXF 393) was > 100 µM (inactive) and the GI50 (SK-MEL-28) was > 100 µM (inactive). For the same molecule, the GI50 (OVCAR-3) was > 45.9 µM (inactive), the GI50 (DMS-273) was > 100 µM (inactive) and the GI50 (UACC-62) was > 100 µM (inactive). The GI50 (K562) was > 100 µM (inactive), the GI50 (CCRF-CEM) was > 56.2 µM (inactive) and the GI50 (SN12C) was > 68.4 µM (inactive). The GI50 (HCT-15) was greater than 100 µM, the GI50 (SNB-75) was 26.1 µM (inactive) and the GI50 (HOP-62) was 2.98 µM (inactive). For the same molecule, the GI50 (A498) was > 47.9 µM (inactive), the GI50 (NCI-H226) was > 49.9 µM (inactive) and the GI50 (NCI-H522) was > 100 µM (inactive). The GI50 (LXFL 529) was > 91.4 µM (inactive), the GI50 (SF-268) was > 100 µM (inactive) and the GI50 (OVCAR-4) was 6.24 µM (inactive). The GI50 (A549) was > 68.5 µM (inactive), the GI50 (MOLT-4) was > 100 µM (inactive) and the GI50 (SF-539) was 1.66 µM (inactive). For the same molecule, the GI50 (U-251) was > 36.7 µM (inactive), the GI50 (SK-MEL-5) was > 100 µM (inactive) and the GI50 (M19-MEL) was > 100 µM (inactive). For the same molecule, the GI50 (COLO 205) was > 100 µM (inactive), the GI50 (KM12) was 97.3 µM (inactive) and the GI50 (OVCAR-8) was 31.5 µM (inactive). For the same molecule, the GI50 (SW-620) was > 67.5 µM (inactive), the GI50 (EKVX) was > 62.8 µM (inactive) and the GI50 (ACHN) was > 64 µM (inactive). For the same molecule, the GI50 (HCT-116) was > 57.9 µM (inactive), the GI50 (HL-60) was 31.3 µM (inactive) and the GI50 (CAKI-1) was 23.3 µM (inactive). For the same molecule, the GI50 (SR) was 47 µM (inactive), the GI50 (786-0) was > 44.8 µM (inactive) and the GI50 (SK-OV-3) was > 47.5 µM (inactive). The GI50 (SK-MEL-2) was > 58.1 µM (inactive), the GI50 (SNB-78) was > 47 µM (inactive) and the GI50 (HCC 2998) was > 100 µM (inactive). The GI50 (RXF 631) was 31.2 µM (inactive), the GI50 (UACC-257) was > 100 µM (inactive) and the GI50 (NCI-H460) was > 90.8 µM (inactive). The GI50 (XF498) was > 47.8 µM (inactive), the GI50 (Malme-3M) was > 92.3 µM (inactive) and the GI50 (DLD-1) was 51.4 µM (inactive). The GI50 (HT-29) was > 100 µM (inactive), the GI50 (LOX IMVI) was > 84.9 µM (inactive) and the GI50 (OVCAR-5) was > 100 µM (inactive). The GI50 (RPMI-8226) was > 100 µM (inactive) and the GI50 (M14) was > 100 µM (inactive).
